Laboratory results from US20130331415A1, “COMPOSITIONS COMPRISING WNT INHIBITORS FOR TREATING CANCER” (priority 2010, published 2013).

Legend:
OPM-2 myeloma cells = assay: Cell viability by DiOC6 staining, flow cytometry: OPM-2; assay type: cell-based, human; conditions: for viability of OPM-2 cells, single drug or combination: three days, EA or CIC 30 μM, thalidomide 40 μM, lenalidomide 12 μM
Protocol: (§1) The lymphoma cell lines LAM-53, SU-DHL-4, Daudi and Raji, as well as the myeloma cell lines OPM-2, RPMI-8226 and U-266 (all obtained from DSMZ, Collection of Microorganisms and Cell Culture, Braunschweig, Germany) were cultured in RPMI-1640 Medium consisting of 10% heat-inactivated fetal calf serum (FCS, Invitrogen, Karlsruhe, Germany), 2.5% 1 M HEPES, and 1× penicillin/streptomycin (all from PAA Laboratories GmbH, Cölbe, Germany). Cells were cultured at a density of 3.3×10^5 cells ml^−1 andincubated at 37° C. with 5% CO2 and 95% humidity.
(§2) After addition of 5 μl PI-solution (100 μg/ml) the cells were analyzed by FACS.
(§3) Experiments were performed as reported recently.

RPMI 8226 myeloma cells = assay: Cell viability by DiOC6 staining, flow cytometry: RPMI 8226; assay type: cell-based, human; conditions: three days; EA or CIC 30 μM; thalidomide 20 μM; lenalidomide 80 μM
Protocol: as §1, §2, §3

PBMC = assay: Cell viability by DiOC6 staining, flow cytometry: PBMC of healthy individuals; assay type: cell-based, human
Protocol: as §2
PBMCs were isolated from blood of healthy donors by Ficoll-Hypaque density gradient centrifugation. Blood from buffy coats was mixed 1:2 with PBS/1% BSA (both PAA, Cölbe, Germany) and used for a ficoll gradient (LymphoPrep, PAA, Cölbe, Germany). After the centrifugation at 800 g for 30 minutes, the leukocyte layer was removed and transferred to new tubes.
as §3

PBL = assay: Cell viability by DiOC6 staining, flow cytometry: PBL of healthy individuals; assay type: cell-based, human
Protocol: as §2, §3

[1] = test system: lymphoma cell lines (OCI-Ly8 LAM53, SU-DHL-4 and Raji); assay: Viability of lymphoma cell lines in vitro; assay type: cell-based, human
Protocol: as §2, §3

U266 myeloma cells = assay: Cell viability by DiOC6 staining, flow cytometry: U266; assay type: cell-based, human; conditions: three days; EA or CIC 30 μM; thalidomide 160 μM
Protocol: as §1, §2, §3

primary myeloma cells = assay: Viability of primary myeloma cells from bone marrow of patients; assay type: cell-based, human; conditions: three days; preliminary data
Protocol: Bone marrow samples from patients with myeloma were taken after informed consent, single cell suspensions generated and cells ficolled. Cells were incubated with or without EA for three days and measured for viability.
Results represent data from two separate experiments. Data are shown as mean.
Bone marrow samples from patients with myeloma were taken after informed consent, single cell suspensions generated and cells ficolled. Cells were incubated with or without CIC for three days and measured for viability.
Bone marrow samples from patients with myeloma were taken after informed consent, single cell suspensions generated and cells ficolled. Cells were incubated with or without GF for three days and measured for viability.

MPC11 myeloma cells = assay type: in vivo; conditions: for animals in which solid tumor nodules formed: gavage 450 μg per animal daily; for overall survival compared to control group: oral 450 μg/day, 750 μg lenalidomide/day in combination
Protocol: Mice were treated orally with 450 μg/day EA and 750 μg lenalidomide/day, respectively. Overall survival and tumor growth were measured. Tumor volume was calculated as follows: volume=length×width^2×0.52.
Mice were treated orally with 450 μg/day CIC and 750 μg lenalidomide/day, respectively. Overall survival and tumor growth were measured. Tumor volume was calculated as follows: volume=length×width^2×0.52.
Mice were treated orally with 450 μg/day PO. Overall survival and tumor growth were measured. Tumor volume was calculated as follows: volume=length×width^2×0.52.

[2] = test system: Wnt/beta catenin signaling; conditions: 960 compounds screened; cited from earlier work
primary CLL cells = conditions: cited from earlier work
[3] = cited from earlier work
Raji lymphoma cells = assay: Cell viability by DiOC6 staining, flow cytometry: Raji; assay type: cell-based, human; conditions: for viability of Raji cells, single drug or combination: EA or CIC 30 μM, data not shown
Protocol: as §1, §2, §3

[4] = test system: OCI-Ly8 LAM53 lymphoma cells; assay: Cell viability by DiOC6 staining, flow cytometry: OCI-Ly8 LAM53; assay type: cell-based; conditions: Homo sapiens, EA 30 μM, after 72 h, read-out: relative viability, LAM-53
Protocol: as §1, §2, §3

SU-DHL-4 lymphoma cells = assay: Cell viability by DiOC6 staining, flow cytometry: SU-DHL-4; assay type: cell-based; conditions: Homo sapiens, EA 30 μM, after 72 h, read-out: relative viability, SU-DHL-4
Protocol: as §1, §2, §3

Daudi lymphoma cells = assay: Cell viability by DiOC6 staining, flow cytometry: Daudi; assay type: cell-based, human; conditions: EA or CIC 30 μM; data not shown
Protocol: as §1, §2
as §1, with “and incubated” for “andincubated”
as §3

[5] = test system: myeloma cells (OPM-2, U266 and RPMI 8226); assay: Viability of myeloma cell lines, mean IC50 over OPM-2, U266 and RPMI 8226; assay type: cell-based, human
Protocol: A mean IC50 value in myeloma cells was determined using the mean of the IC50 results determined in OPM-2, U266 and RPMI 8226 cells.

## Nc1cccc2c1CN(C1CCC(=O)NC1=O)C2=O (racemic) [lenalidomide, (RS)-3-(4-amino-1-oxo-3H-isoindol-2-yl)piperidine-2,6-dione]
OPM-2 myeloma cells
  viability of OPM-2 cells, single drug or combination: significant decrease in viability
RPMI 8226 myeloma cells
  viability of RPMI-8226 cells, single drug or combination: significant decrease in viability
PBMC
  effect on normal PBMC: marginal
PBL
  effect on normal PBL: marginal
[1]
  viability of lymphoma cell lines in vitro: no effect

## O=C1CCC(N2C(=O)c3ccccc3C2=O)C(=O)N1 (racemic) [thalidomide, (RS)-2-(2,6-dioxopiperidin-3-yl)-1H-isoindole-1,3(2H)-dione]
OPM-2 myeloma cells
  viability of OPM-2 cells, single drug or combination: significant decrease in viability
U266 myeloma cells
  viability of U-266 cells, single drug or combination: significant decrease in viability
RPMI 8226 myeloma cells
  viability of RPMI-8226 cells, single drug or combination: significant decrease in viability
PBMC
  effect on normal PBMC: no effect
PBL
  effect on normal PBL: no effect
[1]
  viability of lymphoma cell lines in vitro: no effect

## Cc1cc(C2CCCCC2)n(O)c(=O)c1 [CIC, ciclopirox olamine]
PBMC
  effect on normal PBMC: marginal
PBL
  effect on normal PBL: marginal
[1]
  viability of lymphoma cell lines in vitro: significantly (p<0.05) decreased the viability
Primary myeloma cells
  growth of primary myeloma cells from bone marrow of patients: inhibits the growth
MPC11 myeloma cells; oral 450 μg/day CIC, 750 μg lenalidomide/day
  tumor growth compared to control mice: significantly reduced
[2]
  result of TOPflash reporter screen: Wnt/beta catenin inhibitors
Primary CLL cells
  cell death in primary CLL cells: selectively induced cell death

## Cc1cc(C2CCCCC2)n(O)c(=O)c1 [Ciclopirox, 6-cyclohexyl-1-hydroxy-4-methyl-1,2-dihydropyridin-2-one]
[3]
  solubility in methanol: soluble

## C=C(CC)C(=O)c1ccc(OCC(=O)O)c(Cl)c1Cl [EA, 2-[2,3-dichloro-4-(2-methylidenebutanoyl)phenoxy]acetic acid]
Raji lymphoma cells; Homo sapiens, Raji, EA 30 μM, after 72 h, read-out: relative viability, Raji
  viability at 30 µM: 78.9%
[4]
  viability at 30 µM: 91%
SU-DHL-4 lymphoma cells
  viability at 30 µM: 97.6%
[1]
  viability of lymphoma cell lines in vitro: significantly (p<0.05) decreased the viability
Primary myeloma cells
  growth of primary myeloma cells from bone marrow of patients: inhibits the growth
MPC11 myeloma cells; oral 450 μg/day EA, 750 μg lenalidomide/day, p<0.001
  tumor growth compared to mice treated with lenalidomide alone: significantly reduced
[2]
  result of TOPflash reporter screen: Wnt/beta catenin inhibitors
Primary CLL cells
  cell death in primary CLL cells: selectively induced cell death
[3]
  solubility in water: slightly solube
[3]; e.g. alcohols, chloroform, and benzene
  solubility in most organic solvents: soluble

## CC(C)C[C@H](NC(=O)[C@H](Cc1ccccc1)NC(=O)c1cnccn1)B(O)O [bortezomib]
OPM-2 myeloma cells
  viability of OPM-2 cells, single drug or combination: significant decrease in viability

## COc1cccc2c1C(=O)c1c(O)c3c(c(O)c1C2=O)C[C@@](O)(C(=O)CO)C[C@@H]3O[C@H]1C[C@H](N)[C@H](O)[C@H](C)O1 [doxorubicin]
Raji lymphoma cells
  viability of Raji cells, single drug or combination: significant decrease in viability
Daudi lymphoma cells
  viability of Daudi cells, single drug or combination: significant decrease in viability

## COC1=CC(=O)C[C@@H](C)[C@]12Oc1c(Cl)c(OC)cc(OC)c1C2=O [griseofulvin, (2S,6′R)-7-chloro-2′,4,6-trimethoxy-6′-methyl-3H,4′H-spiro[1-benzofuran-2,1′-cyclohex[2]ene]-3,4′-dione]
[5]
  viability of myeloma cell lines in vitro: significantly decreased the viability
[1]
  viability of lymphoma cell lines in vitro: significantly (p<0.05) decreased the viability
Primary myeloma cells
  growth of primary myeloma cells from bone marrow of patients: inhibits the growth
MPC11 myeloma cells
  animals in which solid tumor nodules formed: 5 of 6
  overall survival compared to control group: significantly (p<0.05) longer

## Cc1cc(CC(C)CC(C)(C)C)n(O)c(=O)c1 (stereo not shown) [piroctone olamine]
OPM-2 myeloma cells; 0.1 uM, three days (FIG. 12)
  mode of cytotoxic activity: induction of apoptosis
PBL
  effect on normal PBL: marginal
[5]
  viability of myeloma cell lines in vitro: significantly decreased the viability
[1]
  viability of lymphoma cell lines in vitro: significantly (p<0.05) decreased the viability
Primary myeloma cells
  growth of primary myeloma cells from bone marrow of patients: inhibits the growth
MPC11 myeloma cells
  animals in which solid tumor nodules formed: 5 of 6
  overall survival compared to control group: significantly (p<0.05) longer

## rituximab
Raji lymphoma cells
  viability of Raji cells, single drug or combination: significantly decreased
Daudi lymphoma cells
  viability of Daudi cells, single drug or combination: significantly decreased
